Experiments:
[1] = tested on: S. aureus; settings: erythromycin, gentamicin, vancomycin, ciproflaxin, clindamycin, tetracycline; cited from earlier work
[2] = tested on: S. aureus; assay: Soap rapid kill test (30 second kill) in presence of bovine serum; format: cell-based
Protocol: The antimicrobial activity of the above soap was tested in parallel with commercial Softsoap® containing triclosan (Softsoap® Antibacterial; Colgate-Palmolive). 0.1 ml of a 10^8 cfu/ml culture of each microbe tested was mixed with 0.1 ml of bovine serum and placed in a sterile culture tube. 0.8 ml of the test soap formulation was added to the tube and vortexed for 30 seconds. Then 9.0 ml DNB was added to neutralize the activity of the soap. The tube was then vortexed and serially diluted with DNB. 0.5 ml of the diluted solution was plated on TSA plates. The same soap base lacking cinnamon oil, citric acid, and orange oil, with phosphate buffered saline mixed with the culture, were used as the controls.
The antimicrobial activity of the above soap was tested in parallel with commercial Dial® Antibacterial Hand Soap) containing triclosan. 0.1 ml of a 10^8 cfu/ml culture of each microbe tested was mixed with 0.1 ml of bovine serum and placed in a sterile culture tube. 0.8 ml of the test soap formulation was added to the tube and vortexed for 30 seconds. Then 9.0 ml DNB was added to neutralize the activity of the soap. The tube was then vortexed and serially diluted with DNB. 0.5 ml of the diluted solution was plated on TSA plates. The same soap base lacking cinnamon oil, citric acid, and orange oil, with phosphate buffered saline mixed with the culture, were used as the controls.
The following method was used. A mixture of 0.1 ml of 10^7 cfu/ml of S. aureus culture and 0.1 ml of bovine serum were placed in a sterile culture tube. 0.8 ml of the test soap formulation was added to the tube and vortexed for 30 seconds. 9.0 ml DFN was added to the tube to neutralize the activity of the soap; this tube was then vortexed and serially diluted with DFN. 0.5 ml of the diluted solution was plated on trypticase soy agar plates, incubated at 37° C. for 24-48 hours and the colony counts were determined. Soft Soap® and Dial® soaps containing 0.15% triclosan was also tested similarly at the same time. The soap base without essential oils and Citric acid containing the culture were used as controls.
The following method was used. A mixture of 0.1 ml of 10^7 cfu/ml of S. aureus culture and 0.1 ml of bovine serum were placed in a sterile culture tube. 0.8 ml of the test soap formulation was added to the tube and vortexed for 30 seconds. 9.0 ml DFN was added to the tube to neutralize the activity of the soap; this tube was then vortexed and serially diluted with DFN. 0.5 ml of the diluted solution was plated on trypticase soy agar plates, incubated at 37° C. for 24-48 hrs and the colony counts were determined. Soft Soap® and Dial® soaps containing 0.15% triclosan was also tested similarly at the same time. The soap base without essential oils and citric acid containing the culture were used as controls.
The following method was used. A mixture of 0.1 ml of 10^8 cfu/ml of S. aureus culture and 0.1 ml of bovine serum were placed in a sterile culture tube. 0.8 ml of the test soap formulation was added to the tube and vortexed for 30 seconds. 9.0 ml DFN was added to the tube to neutralize the activity of the soap; this tube was then vortexed and serially diluted with DFN. 0.5 ml of the diluted solution was plated on trypticase soy agar plates, incubated at 37° C. for 24-48 hours and the colony counts were determined.
A mixture of 0.1 ml of 10^7 cfu/ml of S. aureus culture and 0.1 ml of bovine serum were placed in a sterile culture tube. 0.8 ml of the test soap formulation was added to the tube and vortexed for 30 seconds. 9.0 ml DFN was added to the tube to neutralize the activity of the soap; this tube was then vortexed and serially diluted with DFN.

[3] = tested on: S. aureus; assay: Five-minute kill test of solutions in 10% SDA40-B alcohol and water, colony counts; format: cell-based; settings: control counts 1 × 10^6 to 5 × 10^6
Protocol: Various concentrations of basil oil and acetic, lactic, and citric acids, separately and in combination, were prepared in 10 percent SDA40-B alcohol and water, and adjusted to 100 percent. Except for citric acid, which was added by weight, all other ingredients were measured by volume. 0.9 ml of each solution were dispensed in sterile culture tubes, in triplicate, and 0.1 ml of a 10^7 cfu/ml S. aureus culture was added to the tubes, vortexed, and then, five minutes later, 9.0 ml of drug inactivating medium was added to each tube. Serial dilutions were made with the drug inactivating medium. 0.5 ml of the dilutions were plated on trypticase soy agar (“TSA”) plates. As a control, water containing 10 percent SDA40-B alcohol was processed in parallel. The plates were incubated at 37° C. for 24-48 hours and then the colony counts were determined.
The same methodology was used to test the antimicrobial activity of combinations of citric acid with other essential oils.
Various concentrations of cinnamon leaf oil and citric acid were dissolved in SDA 40-B alcohol (10%) and water, and adjusted to 100 percent. Except for citric acid, which was added by weight, all other ingredients were measured by volume. 0.9 ml of each solution were dispensed in sterile culture tubes, in triplicate, and 0.1 ml of 10^7 cfu/ml of S. aureus culture was added to the tubes, vortexed, and then, five minutes later, 9.0 ml of drug inactivating medium was added to each tube. Serial dilutions were made with the drug inactivating medium. 0.5 ml of the dilutions were plated on trypticase soy agar (“TSA”) plates. As a control, water containing 10% percent SDA40-B alcohol was processed in parallel. The plates were incubated at 37° C. for 24-48 hours and then the colony counts were determined.
The following experiments were performed to evaluate the antibacterial activity of LG and Citric acid dissolved in alcohol, where the test organism used was S. aureus. Various amounts of LG oil and Citric acid were dissolved in SDA40-B alcohol, and then water was added to result in the EO concentration shown and an alcohol concentration of 10 percent. 0.9 ml of each solution were dispensed in sterile culture tubes, in triplicate, and 0.1 ml of a 10^7 cfu/ml S. aureus culture was added to the tubes, vortexed, and then, five minutes later, 9.0 ml of drug inactivating medium was added to each tube. Serial dilutions were made with drug inactivating medium. 0.5 ml of the dilutions were plated on trypticase soy agar (“TSA”) plates. As a control, water containing 10 percent SDA40-B alcohol was processed in parallel. The plates were incubated at 37° C. for 24-48 hours and then the colony counts were determined.

[4] = tested on: S. aureus; assay: Synergistic activity of essential oils and plant extracts with citric acid, log10 reduction from control bacterial counts; format: cell-based; settings: Table 202, compounds in %, control counts 1×10^7 to 5×10^7
Description: Log10 reduction from control bacterial counts that range from 1×10^7 to 5×10^7.

## CC(C)=CCC[C@](C)(O)C1CC=C(C)CC1 (some centres unmarked) [bisabolol]
[1]
  effect on susceptibility of S. aureus to antibiotics (in words): enhanced the susceptibility of S. aureus

## C=CCc1ccc(O)c(OC)c1 [eugenol]
[2]; bovine serum
  antibacterial activity of soap, 30 second kill (in words): improved the antimicrobial effect

## CC(C)=CCC/C(C)=C/CC1CCCC1=O (centres unmarked) [apritone]
[1]
  effect on susceptibility of S. aureus to antibiotics (in words): enhanced the susceptibility of S. aureus

## CC(C)=CCCC(C)=CCCC(C)=CCO [farnesol]
[1]
  effect on susceptibility of S. aureus to antibiotics (in words): enhanced the susceptibility of S. aureus

## C=CC(C)(O)CCC=C(C)CCC=C(C)C (centres unmarked) [nerolidol]
[1]
  effect on susceptibility of S. aureus to antibiotics (in words): enhanced the susceptibility of S. aureus

## CCCCCCCCC(O)CO (centres unmarked) [1,2 decanediol (0.3%)]
[2]; Table 150, 30 seconds, bovine serum, alkanediols 0.3%, control 2 × 10^8-5 × 10^8
  Log10 reduction from control: 0.6 Log10

## O=C(O)CC(O)(CC(=O)O)C(=O)O [1% Citric Acid (CA)]
[3]; Table 105, five minutes
  Log10 Reduction from control bacterial counts: 0.1 Log10

## CC(O)C(=O)O (centres unmarked) [1% Lactic acid (LA)]
[3]; Table 105, five minutes
  Log10 Reduction from control bacterial counts: 2.3 Log10

## CCCCCCCCC(O)CO (centres unmarked) [1,2 decanediol(0.5%)]
[2]; Table 151, 30 second Kill, alkanediols 0.5%, soaps pH 4.5-4.6, control 2 × 10^8-5 × 10^8
  Log10 reduction from control: 1.4 Log10

## O=C(O)CC(O)(CC(=O)O)C(=O)O [citric acid]
[2]; bovine serum
  antibacterial activity of soap, 30 second kill (in words): enhance the activity of soaps containing triclosan

## CC(=O)O [1% Acetic acid (AA)]
[3]; Table 105, five minutes
  Log10 Reduction from control bacterial counts: 0.2 Log10

## CCCCCCCCC(O)CO (centres unmarked) [decanediol, 1,2 decanediol]
[2]; bovine serum
  antibacterial activity of soap, 30 second kill (in words): enhances the activity of Dial®-T Soap+LG-O-Cit 4

## CC(C)=CCCC(C)=CCCC(C)=CCO [0.25% Farnesol]
[3]; Table 106, five minutes
  Log10 Reduction from control bacterial counts: 0 Log10

## O=C(O)CC(O)(CC(=O)O)C(=O)O [1 Citric acid]
[4]
  Log10 Reduction from control bacterial counts: 0.7 Log10

— patent US9687429B2, “Antimicrobial compositions containing low concentrations of botanicals” (THE TRUSTEES OF COLUMBIA UNIVERSITY IN THE CITY OF NEW YORK, priority 2007, dated 2017)
